Source: the NIST ThermoML archive (doi:10.1021/je050416y)

Test: xn = mol fraction of the nth substance listed
Settings: 101 kPa, Liquid; for mass density: Vibrating tube method

CCC(C)(C)O [2-methylbutan-2-ol] + CCO
Settings	kinematic viscosity [m2/s]	mass density [kg/m3]
293.15 K, x1 = 0.0268	–	790.6
293.15 K, x1 = 0.0549	–	791.5
293.15 K, x1 = 0.0845	–	792.2
293.15 K, x1 = 0.0915	1.64e-06	–
293.15 K, x1 = 0.1156	–	793
293.15 K, x1 = 0.1484	–	793.9
293.15 K, x1 = 0.1753	1.76e-06	–
293.15 K, x1 = 0.183	–	794.8
293.15 K, x1 = 0.2524	1.89e-06	–
293.15 K, x1 = 0.2584	–	797
293.15 K, x1 = 0.3235	2.04e-06	–
293.15 K, x1 = 0.3433	–	799.5
293.15 K, x1 = 0.3894	2.19e-06	–
293.15 K, x1 = 0.4395	–	802.4
293.15 K, x1 = 0.4505	2.35e-06	–
293.15 K, x1 = 0.5495	–	805.3
293.15 K, x1 = 0.5605	2.69e-06	–
293.15 K, x1 = 0.6567	3.07e-06	–
293.15 K, x1 = 0.6765	–	808.3
293.15 K, x1 = 0.7416	3.46e-06	–
293.15 K, x1 = 0.817	3.86e-06	–
293.15 K, x1 = 0.8247	–	811.2
293.15 K, x1 = 0.8844	4.26e-06	–
293.15 K, x1 = 0.9451	4.67e-06	–
293.15 K, x1 = 1	5.11e-06	813.9
298.15 K, x1 = 0.0268	–	786.4
298.15 K, x1 = 0.0549	–	787.3
298.15 K, x1 = 0.0845	–	788.2
298.15 K, x1 = 0.0915	1.5e-06	–
298.15 K, x1 = 0.1156	–	789.1
298.15 K, x1 = 0.1484	–	790
298.15 K, x1 = 0.1753	1.62e-06	–
298.15 K, x1 = 0.183	–	791
298.15 K, x1 = 0.2524	1.74e-06	–
298.15 K, x1 = 0.2584	–	793.3
298.15 K, x1 = 0.3235	1.86e-06	–
298.15 K, x1 = 0.3433	–	795.9
298.15 K, x1 = 0.3894	1.99e-06	–
298.15 K, x1 = 0.4395	–	798.8
298.15 K, x1 = 0.4505	2.13e-06	–
298.15 K, x1 = 0.5495	–	801.8
298.15 K, x1 = 0.5605	2.43e-06	–
298.15 K, x1 = 0.6567	2.76e-06	–
298.15 K, x1 = 0.6765	–	804.8
298.15 K, x1 = 0.7416	3.1e-06	–
298.15 K, x1 = 0.817	3.44e-06	–
298.15 K, x1 = 0.8247	–	807.7
298.15 K, x1 = 0.8844	3.78e-06	–
298.15 K, x1 = 0.9451	4.12e-06	–
298.15 K, x1 = 1	4.47e-06	810.5
303.15 K, x1 = 0.0268	–	782.1
303.15 K, x1 = 0.0549	–	783.2
303.15 K, x1 = 0.0845	–	784.2
303.15 K, x1 = 0.0915	1.34e-06	–
303.15 K, x1 = 0.1156	–	785.2
303.15 K, x1 = 0.1484	–	786.2
303.15 K, x1 = 0.1753	1.44e-06	–
303.15 K, x1 = 0.183	–	787.3
303.15 K, x1 = 0.2524	1.55e-06	–
303.15 K, x1 = 0.2584	–	789.7
303.15 K, x1 = 0.3235	1.66e-06	–
303.15 K, x1 = 0.3433	–	792.3
303.15 K, x1 = 0.3894	1.78e-06	–
303.15 K, x1 = 0.4395	–	795.2
303.15 K, x1 = 0.4505	1.91e-06	–
303.15 K, x1 = 0.5495	–	798.2
303.15 K, x1 = 0.5605	2.17e-06	–
303.15 K, x1 = 0.6567	2.45e-06	–
303.15 K, x1 = 0.6765	–	801.3
303.15 K, x1 = 0.7416	2.74e-06	–
303.15 K, x1 = 0.817	3.04e-06	–
303.15 K, x1 = 0.8247	–	804.2
303.15 K, x1 = 0.8844	3.33e-06	–
303.15 K, x1 = 0.9451	3.62e-06	–
303.15 K, x1 = 1	3.91e-06	807
308.15 K, x1 = 0.0268	–	777.8
308.15 K, x1 = 0.0549	–	778.9
308.15 K, x1 = 0.0845	–	780
308.15 K, x1 = 0.0915	1.23e-06	–
308.15 K, x1 = 0.1156	–	781.1
308.15 K, x1 = 0.1484	–	782.3
308.15 K, x1 = 0.1753	1.33e-06	–
308.15 K, x1 = 0.183	–	783.4
308.15 K, x1 = 0.2524	1.42e-06	–
308.15 K, x1 = 0.2584	–	785.9
308.15 K, x1 = 0.3235	1.52e-06	–
308.15 K, x1 = 0.3433	–	788.6
308.15 K, x1 = 0.3894	1.62e-06	–
308.15 K, x1 = 0.4395	–	791.5
308.15 K, x1 = 0.4505	1.72e-06	–
308.15 K, x1 = 0.5495	–	794.6
308.15 K, x1 = 0.5605	1.95e-06	–
308.15 K, x1 = 0.6567	2.19e-06	–
308.15 K, x1 = 0.6765	–	797.6
308.15 K, x1 = 0.7416	2.43e-06	–
308.15 K, x1 = 0.817	2.68e-06	–
308.15 K, x1 = 0.8247	–	800.6
308.15 K, x1 = 0.8844	2.93e-06	–
308.15 K, x1 = 0.9451	3.16e-06	–
308.15 K, x1 = 1	3.39e-06	803.5
313.15 K, x1 = 0.0268	–	773.5
313.15 K, x1 = 0.0549	–	774.8
313.15 K, x1 = 0.0845	–	776
313.15 K, x1 = 0.0915	1.12e-06	–
313.15 K, x1 = 0.1156	–	777.2
313.15 K, x1 = 0.1484	–	778.4
313.15 K, x1 = 0.1753	1.2e-06	–
313.15 K, x1 = 0.183	–	779.6
313.15 K, x1 = 0.2524	1.29e-06	–
313.15 K, x1 = 0.2584	–	782.2
313.15 K, x1 = 0.3235	1.37e-06	–
313.15 K, x1 = 0.3433	–	784.9
313.15 K, x1 = 0.3894	1.46e-06	–
313.15 K, x1 = 0.4395	–	787.9
313.15 K, x1 = 0.4505	1.55e-06	–
313.15 K, x1 = 0.5495	–	790.9
313.15 K, x1 = 0.5605	1.74e-06	–
313.15 K, x1 = 0.6567	1.94e-06	–
313.15 K, x1 = 0.6765	–	794
313.15 K, x1 = 0.7416	2.14e-06	–
313.15 K, x1 = 0.817	2.34e-06	–
313.15 K, x1 = 0.8247	–	797.1
313.15 K, x1 = 0.8844	2.54e-06	–
313.15 K, x1 = 0.9451	2.73e-06	–
313.15 K, x1 = 1	2.91e-06	800
318.15 K, x1 = 0.0268	–	769.3
318.15 K, x1 = 0.0549	–	770.6
318.15 K, x1 = 0.0845	–	771.9
318.15 K, x1 = 0.0915	1.02e-06	–
318.15 K, x1 = 0.1156	–	773.2
318.15 K, x1 = 0.1484	–	774.4
318.15 K, x1 = 0.1753	1.1e-06	–
318.15 K, x1 = 0.183	–	775.7
318.15 K, x1 = 0.2524	1.18e-06	–
318.15 K, x1 = 0.2584	–	778.4
318.15 K, x1 = 0.3235	1.25e-06	–
318.15 K, x1 = 0.3433	–	781.2
318.15 K, x1 = 0.3894	1.33e-06	–
318.15 K, x1 = 0.4395	–	784.2
318.15 K, x1 = 0.4505	1.41e-06	–
318.15 K, x1 = 0.5495	–	787.3
318.15 K, x1 = 0.5605	1.57e-06	–
318.15 K, x1 = 0.6567	1.73e-06	–
318.15 K, x1 = 0.6765	–	790.5
318.15 K, x1 = 0.7416	1.9e-06	–
318.15 K, x1 = 0.817	2.07e-06	–
318.15 K, x1 = 0.8247	–	793.6
318.15 K, x1 = 0.8844	2.23e-06	–
318.15 K, x1 = 0.9451	2.38e-06	–
318.15 K, x1 = 1	2.52e-06	796.6
323.15 K, x1 = 0.0268	–	764.9
323.15 K, x1 = 0.0549	–	766.3
323.15 K, x1 = 0.0845	–	767.7
323.15 K, x1 = 0.0915	9.01e-07	–
323.15 K, x1 = 0.1156	–	769.1
323.15 K, x1 = 0.1484	–	770.4
323.15 K, x1 = 0.1753	9.68e-07	–
323.15 K, x1 = 0.183	–	771.8
323.15 K, x1 = 0.2524	1.03e-06	–
323.15 K, x1 = 0.2584	–	774.6
323.15 K, x1 = 0.3235	1.09e-06	–
323.15 K, x1 = 0.3433	–	777.5
323.15 K, x1 = 0.3894	1.16e-06	–
323.15 K, x1 = 0.4395	–	780.5
323.15 K, x1 = 0.4505	1.22e-06	–
323.15 K, x1 = 0.5495	–	783.7
323.15 K, x1 = 0.5605	1.35e-06	–
323.15 K, x1 = 0.6567	1.49e-06	–
323.15 K, x1 = 0.6765	–	787
323.15 K, x1 = 0.7416	1.62e-06	–
323.15 K, x1 = 0.817	1.75e-06	–
323.15 K, x1 = 0.8247	–	790.2
323.15 K, x1 = 0.8844	1.87e-06	–
323.15 K, x1 = 0.9451	1.99e-06	–
323.15 K, x1 = 1	2.09e-06	793.3
